According to publication PMC4681449 (Molecular microbiology, 2015):

Target: CjArsP (Campylobacter jejuni, UniProt B5LWZ8)
Type: biochemical

CjArsP, sequence (B5LWZ8 1-315): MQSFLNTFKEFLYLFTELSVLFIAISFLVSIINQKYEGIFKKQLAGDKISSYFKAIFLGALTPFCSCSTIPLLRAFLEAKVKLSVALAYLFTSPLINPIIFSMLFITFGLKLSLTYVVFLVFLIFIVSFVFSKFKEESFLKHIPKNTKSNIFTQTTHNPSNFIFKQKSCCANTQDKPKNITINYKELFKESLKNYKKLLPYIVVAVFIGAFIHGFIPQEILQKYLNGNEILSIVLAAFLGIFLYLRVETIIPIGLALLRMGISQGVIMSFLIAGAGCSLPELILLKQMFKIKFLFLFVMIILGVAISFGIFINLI

## C[As](O)O [MAs(III), methylarsenite]
  uptake into everted membrane vesicles, As by ICP-MS: Everted membrane vesicles from cells expressing CjarsP accumulated MAs(III) when NADH was supplied
